Data on 19 compounds can be found in PMC4583267, “Synthesis and Evaluation of Novel Triterpene Analogues of Ursolic Acid as Potential Antidiabetic Agent” (PLoS ONE, 2015).

Molecules are shown by their SMILES.

T1 sequence (P53341 whole entry): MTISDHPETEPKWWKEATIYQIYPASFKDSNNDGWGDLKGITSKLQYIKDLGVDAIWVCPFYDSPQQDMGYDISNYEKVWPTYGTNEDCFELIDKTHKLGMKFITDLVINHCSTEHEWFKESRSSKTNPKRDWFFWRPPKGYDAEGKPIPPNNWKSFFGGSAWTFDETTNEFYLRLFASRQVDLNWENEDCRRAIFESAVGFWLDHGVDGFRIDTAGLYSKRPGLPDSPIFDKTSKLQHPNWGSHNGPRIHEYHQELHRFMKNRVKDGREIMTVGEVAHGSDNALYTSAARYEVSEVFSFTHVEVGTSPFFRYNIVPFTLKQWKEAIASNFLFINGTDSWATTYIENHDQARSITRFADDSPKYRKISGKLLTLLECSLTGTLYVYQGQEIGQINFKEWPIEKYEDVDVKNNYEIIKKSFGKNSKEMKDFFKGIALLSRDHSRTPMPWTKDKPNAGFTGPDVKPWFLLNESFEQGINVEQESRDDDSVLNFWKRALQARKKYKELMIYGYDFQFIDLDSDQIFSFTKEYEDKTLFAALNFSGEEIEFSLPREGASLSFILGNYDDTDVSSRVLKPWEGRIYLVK

One assay addresses T1, α-glucosidase from baker's yeast (Saccharomyces cerevisiae, UniProt P53341).
T1 construct: purchased
Briefly: biochemical.
Conditions: not given
The procedure: A stock solution of each sample, which has been dissolved in dimethylsulfoxide (DMSO) at the concentrations of 0.05 μM to 500 μM, was diluted with 0.1 M phosphate buffer solution (pH = 6.8) containing an appropriate concentration of enzyme solution (0.1 U/mL). After a 10 min pre-incubation at 37°C of the reactions, the substrate (1mM p-nitrophenyl-α-D-glucopyranoside) was added to initiate them. Then the reactions were incubated for 30 min at 37°C before they were terminated by adding 1 M Na2CO3, and their optical density values were measured at 405 nm by using a Multimodel Plate Reader (Infinite 200). Each experiment was repeated at least four times.
To determine the inhibition activity of each sample, the enzyme activity was measured at a fixed substrate concentration, in which a sequence of sample concentrations were tested. The IC50 value was calculated according to the curve fit to the sequence of concentrations versus the corresponding inhibition abilities. The results were illustrated in Table 1 and Fig 3.
The α-glucosidase inhibition assay was performed according to the method of Worawalai et al. with a slight modification. The α-glucosidase enzyme (0.1 U/mL) and substrate (1 mM p-nitrophenyl-α-D-glucopyranoside) were dissolved in 0.1 M phosphate buffer, pH 6.8. 10 μL of each synthesized analogue (1 mg/mL in DMSO) was pre-incubated with 8 μL of α-glucosidase at 37°C for 10 min. A 100 μL of substrate solution was then added to the reaction mixture, which was further incubated at 37°C for 30 min. Then, the reaction was terminated by adding 100 μL of 1 M Na2CO3 solution. Enzymatic activity was quantified by measuring the absorbance at 405 nm with a use of a Multimodel Plate Reader (Infinite 200). The percentage of inhibition was calculated by using [(A 0-A 1)/A 0]×100%, where A 0 was the absorbance without the sample, and A 1 was the absorbance with the sample. The IC50 value was determined from a plot of the percentage of inhibition versus the sample concentration.
For the compound `C[C@H]1[C@H](C)CC[C@]2(C(=O)O)CC[C@]3(C)C(=CC[C@@H]4[C@@]5(C)CC[C@H](O)C(C)(C)[C@@H]5CC[C@]43C)[C@H]12` [Analogue 1, 3β-hydroxy-urs-12-en-28-oic acid, reference compound], the IC50 was 5080 ± 700 nM.
Same read-out and setting: the figure for `C[C@@H]1CC[C@]2(C(=O)O)CC[C@]3(C)C(=CCC4[C@@]5(C)CCC(=O)C(C)(C)C5CC[C@]43C)C2[C@H]1C` (stereo partly shown) [Analogue 11, 3-Oxo-urs-12-en-28-oic acid] is 2470 nM.

The assay is the same for the next values; noted with them: Table 1; read-out: Observed pIC50 (converted).
`C[C@@H]1CC[C@]2(C(=O)Nc3ccccc3)CC[C@]3(C)C(=CCC4[C@@]5(C)CC[C@H](O)C(C)(C)C5CC[C@]43C)C2[C@H]1C` (stereo partly drawn) [Analogue 3b, N-[3β-Hydroxy-urs-12-en-28-oyl]-aminobenzene]: the IC50 is 1690 nM.
The same measure, in the same setting: the figure for `C[C@@H]1CC[C@]2(C(=O)Nc3ccccc3F)CC[C@]3(C)C(=CCC4[C@@]5(C)CC[C@H](O)C(C)(C)C5CC[C@]43C)C2[C@H]1C` (stereo partly drawn) [Analogue 4b, N-[3β-Hydroxy-urs-12-en-28-oyl]-o-fluoroaniline] is 1510 nM; for `C[C@@H]1CC[C@]2(C(=O)Nc3ccccc3Cl)CC[C@]3(C)C(=CCC4[C@@]5(C)CC[C@H](O)C(C)(C)C5CC[C@]43C)C2[C@H]1C` (stereo partly drawn) [Analogue 5b, N-[3β-Hydroxy-urs-12-en-28-oyl]-o-chloroaniline] it is 1310 nM.
Same read-out and setting: the result for `C[C@@H]1CC[C@]2(C(=O)Nc3ccccc3Br)CC[C@]3(C)C(=CCC4[C@@]5(C)CC[C@H](O)C(C)(C)C5CC[C@]43C)C2[C@H]1C` (stereo partly drawn) [Analogue 6b, N-[3β-Hydroxy-urs-12-en-28-oyl]-o-bromoaniline] reads 2560 nM; that for `C[C@@H]1CC[C@]2(C(=O)Nc3ccc(F)cc3)CC[C@]3(C)C(=CCC4[C@@]5(C)CC[C@H](O)C(C)(C)C5CC[C@]43C)C2[C@H]1C` (stereo partly drawn) [Analogue 7b, N-[3β-Hydroxy-urs-12-en-28-oyl]-p-fluoroaniline], 1670 nM; that for `C[C@@H]1CC[C@]2(C(=O)Nc3ccc(Cl)cc3)CC[C@]3(C)C(=CCC4[C@@]5(C)CC[C@H](O)C(C)(C)C5CC[C@]43C)C2[C@H]1C` (stereo partly drawn) [Analogue 8b, N-[3β-Hydroxy-urs-12-en-28-oyl]-p-chloroaniline], 1270 nM.
With `C[C@@H]1CC[C@]2(C(=O)Nc3ccc(Br)cc3)CC[C@]3(C)C(=CCC4[C@@]5(C)CC[C@H](O)C(C)(C)C5CC[C@]43C)C2[C@H]1C` (stereo partly drawn) [Analogue 9b, N-[3β-Hydroxy-urs-12-en-28-oyl]-p-bromoaniline], the IC50 was 1280 nM.
Same read-out and setting: the figure for `COc1ccc(NC(=O)[C@]23CC[C@@H](C)[C@H](C)C2C2=CCC4[C@@]5(C)CC[C@H](OC(C)=O)C(C)(C)C5CC[C@@]4(C)[C@]2(C)CC3)cc1` (stereo partly drawn) [Analogue 10a, N-[3β-acetoxy-urs-12-en-28-oyl]-p-methoxyamiline] is 2010 nM; for `COc1ccc(NC(=O)[C@]23CC[C@@H](C)[C@H](C)C2C2=CCC4[C@@]5(C)CC[C@H](O)C(C)(C)C5CC[C@@]4(C)[C@]2(C)CC3)cc1` (stereo partly drawn) [Analogue 10b, N-[3β-Hydroxy-urs-12-en-28-oyl]-p-methoxylaniline] it is 2550 nM.

For another assay, the target named is T1, α-glucosidase from baker's yeast.
Assay: not given
The settings on record: S4 Table; analogues of previous work; cited from earlier work.
For `CC(=O)O[C@H]1CC[C@@]2(C)C(CC[C@]3(C)C2CC=C2C4[C@@H](C)[C@H](C)CC[C@]4(C(=O)O)CC[C@]23C)C1(C)C` (stereo partly shown) [Analogue 2], the “Observed pIC50” value is given as 5.278.
Take `CC(=O)O[C@H]1CC[C@@]2(C)C(CC[C@]3(C)C2CC=C2C4[C@@H](C)[C@H](C)CC[C@]4(C(=O)Nc4ccccc4)CC[C@]23C)C1(C)C` (stereo partly shown) [Analogue 3a]: the “Observed pIC50” value is 5.249.
As to `CC(=O)O[C@H]1CC[C@@]2(C)C(CC[C@]3(C)C2CC=C2C4[C@@H](C)[C@H](C)CC[C@]4(C(=O)Nc4ccccc4F)CC[C@]23C)C1(C)C` (stereo partly shown) [Analogue 4a], the “Observed pIC50” value is 4.848.
As to `CC(=O)O[C@H]1CC[C@@]2(C)C(CC[C@]3(C)C2CC=C2C4[C@@H](C)[C@H](C)CC[C@]4(C(=O)Nc4ccccc4Cl)CC[C@]23C)C1(C)C` (stereo partly shown) [Analogue 5a], the “Observed pIC50” value is 4.481.
Regarding `CC(=O)O[C@H]1CC[C@@]2(C)C(CC[C@]3(C)C2CC=C2C4[C@@H](C)[C@H](C)CC[C@]4(C(=O)Nc4ccccc4Br)CC[C@]23C)C1(C)C` (stereo partly shown) [Analogue 6a], the “Observed pIC50” value was 4.954.
As to `CC(=O)O[C@H]1CC[C@@]2(C)C(CC[C@]3(C)C2CC=C2C4[C@@H](C)[C@H](C)CC[C@]4(C(=O)Nc4ccc(F)cc4)CC[C@]23C)C1(C)C` (stereo partly shown) [Analogue 7a], the “Observed pIC50” value was 5.185.
For the compound `CC(=O)O[C@H]1CC[C@@]2(C)C(CC[C@]3(C)C2CC=C2C4[C@@H](C)[C@H](C)CC[C@]4(C(=O)Nc4ccc(Cl)cc4)CC[C@]23C)C1(C)C` (stereo partly shown) [Analogue 8a], the “Observed pIC50” value is 5.489.
Turning to `CC(=O)O[C@H]1CC[C@@]2(C)C(CC[C@]3(C)C2CC=C2C4[C@@H](C)[C@H](C)CC[C@]4(C(=O)Nc4ccc(Br)cc4)CC[C@]23C)C1(C)C` (stereo partly shown) [Analogue 9a], the “Observed pIC50” value is recorded as 5.030.

Still in this assay, the particulars now being: values of earlier work; cited from earlier work.
For the compound `CC(=O)O[C@H]1CC[C@@]2(C)C(CC[C@]3(C)C2CC=C2C4[C@@H](C)[C@H](C)CC[C@]4(C(=O)O)CC[C@]23C)C1(C)C` (stereo partly shown) [Analogue 2], the IC50 is 5.27 ± 0.35 µM.
As to `CC(=O)O[C@H]1CC[C@@]2(C)C(CC[C@]3(C)C2CC=C2C4[C@@H](C)[C@H](C)CC[C@]4(C(=O)Nc4ccccc4)CC[C@]23C)C1(C)C` (stereo partly shown) [Analogue 3a], the IC50 was 5.64 ± 1.12 µM.
Take `CC(=O)O[C@H]1CC[C@@]2(C)C(CC[C@]3(C)C2CC=C2C4[C@@H](C)[C@H](C)CC[C@]4(C(=O)Nc4ccc(Cl)cc4)CC[C@]23C)C1(C)C` (stereo partly shown) [Analogue 8a]: the IC50 is 3.24 ± 0.21 µM.
